The record followed here is patent US20230303540A1 (Merck Sharp & Dohme LLC, priority 2020, published 2023).

Molecules are shown by their SMILES.

This assay concerns the target GST-tagged truncated human mutant G2019S LRRK2 (Homo sapiens, UniProt Q5S007, G2019S). The assay can be described thus: LRRK2 G2019S Km ATP LanthaScreen assay. Type of assay: biochemical. The following applies: 134 μM ATP (Km ATP), LRRKtide substrate, mean IC50 values; read-out: LRRK2 pIC50 (converted). Put shortly: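 Compound preincubated 15 min at room temperature with enzyme in pH 8.5 Tris buffer (10 mM MgCl2). Then a 90 min reaction at ambient temperature with 134 μM (Km) ATP and fluorescein-LRRKtide. EDTA stop, Tb anti-phospho antibody TR-FRET; […]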
In general terms: TR-FRET usually uses a lanthanide donor and a delayed reading to cut background.
Turning to `Cc1c(Nc2ncc3cc(Cl)c(N4CCN(C5(C)COCC5O)CC4)cc3n2)cnn1C1CC1(F)F` (single isomer, unassigned) [Ex-6.38, (3S,4S) or (3R,4R) 4-[4-(6-chloro-2-{[1-(2,2-(R) or (S)difluorocyclopropyl)-5-methyl-1H-pyrazol-4-yl]amino}quinazolin-7-yl)piperazin-1-yl]-4-methyloxolan-3-ol], the IC50 was 0.835 nM.

`Cc1c(Nc2ncc3cc(Cl)c(N4CCN(C5COCC5O)CC4)cc3n2)cnn1C1CC1(F)F` (single isomer, unassigned) [Ex-6.39, (3S,4S) or (3R,4R) 4-[4-(6-chloro-2-{[1-(2,2-(R) or (S)difluorocyclopropyl)-5-methyl-1H-pyrazol-4-yl]amino}quinazolin-7-yl)piperazin-1-yl]oxolan-3-ol]: the IC50 was 0.65 nM.

For the molecule `Cc1c(Nc2ncc3cc(Cl)c(N4CCN(C5(C)COCC5O)CC4)cc3n2)cnn1C1CC1(F)F` (single isomer, unassigned) [Ex-6.40, (3S,4S) or (3R,4R) 4-[4-(6-chloro-2-{[1-(2,2-(R) or (S)difluorocyclopropyl)-5-methyl-1H-pyrazol-4-yl]amino}quinazolin-7-yl)piperazin-1-yl]-4-methyloxolan-3-ol], the IC50 was 0.352 nM.

Take `Cc1c(Nc2ncc3cc(Cl)c(N4CCN(C5(C)COCC5O)CC4)cc3n2)cnn1C1CC1(F)F` (single isomer, unassigned) [Ex-6.41, (3S,4S) or (3R,4R) 4-[4-(6-chloro-2-{[1-(2,2-(R) or (S)difluorocyclopropyl)-5-methyl-1H-pyrazol-4-yl]amino}quinazolin-7-yl)piperazin-1-yl]-4-methyloxolan-3-ol]: the IC50 was 32.9 nM.

As to `Cc1c(Nc2ncc3cc(Cl)c(N4CCN(C5(C)COCC5O)CC4)cc3n2)cnn1C1CC1(F)F` (single isomer, unassigned) [Ex-6.42, (3S,4S) or (3R,4R) 4-[4-(6-chloro-2-{[1-(2,2-(R) or (S)difluorocyclopropyl)-5-methyl-1H-pyrazol-4-yl]amino}quinazolin-7-yl)piperazin-1-yl]-4-methyloxolan-3-ol], the IC50 was 21.4 nM.

As for `Cc1c(Nc2ncc3cc(Cl)c(N4CCN(C5COCC5O)CC4)cc3n2)cnn1C1CC1(F)F` (single isomer, unassigned) [Ex-6.43, (3S,4S) or (3R,4R) 4-[4-(6-chloro-2-{[1-(2,2-(R) or (S)difluorocyclopropyl)-5-methyl-1H-pyrazol-4-yl]amino}quinazolin-7-yl)piperazin-1-yl]oxolan-3-ol], the IC50 was 7.92 nM.

For the molecule `Cc1c(Nc2ncc3cc(Cl)c(N4CCN(C5COCC5O)CC4)cc3n2)cnn1C1CC1(F)F` (single isomer, unassigned) [Ex-6.44, (3S,4S) or (3R,4R) 4-[4-(6-chloro-2-{[1-(2,2-(R) or (S)difluorocyclopropyl)-5-methyl-1H-pyrazol-4-yl]amino}quinazolin-7-yl)piperazin-1-yl]oxolan-3-ol], the IC50 was 6.89 nM.

In the case of `Cc1c(Nc2ncc3cc(Cl)c(N4CCN(C5COCC5O)CC4)cc3n2)cnn1C1CC1(F)F` (single isomer, unassigned) [Ex-6.45, (3S,4S) or (3R,4R) 4-[4-(6-chloro-2-{[1-(2,2-(R) or (S)difluorocyclopropyl)-5-methyl-1H-pyrazol-4-yl]amino}quinazolin-7-yl)piperazin-1-yl]oxolan-3-ol], the IC50 was 0.843 nM.

With `OC1COCC1N1CCN(c2cc3nc(Nc4cnn(C(F)F)c4)ncc3cc2Cl)CC1` (single isomer, unassigned) [Ex-6.46, (3S,4S) or (3R,4R) 4-(4-(6-chloro-2-((1-(difluoromethyl)-1H-pyrazol-4-yl)amino)quinazolin-7-yl)piperazin-1-yl)tetrahydrofuran-3-ol], the IC50 is 18.4 nM.

For the molecule `OC1COCC1N1CCN(c2cc3nc(Nc4cnn(C(F)F)c4)ncc3cc2Cl)CC1` (single isomer, unassigned) [Ex-6.47, (3S,4S) or (3R,4R) 4-(4-(6-chloro-2-((1-(difluoromethyl)-1H-pyrazol-4-yl)amino)quinazolin-7-yl)piperazin-1-yl)tetrahydrofuran-3-ol], the IC50 was 0.85 nM.

As for `CC1(N2CCN(c3cc4nc(Nc5ccnn5C(C)(C)C)ncc4cc3Cl)CC2)COCC1O` (single isomer, unassigned) [Ex-6.48, (3S,4S) or (3R,4R) 4-(4-(2-((1-(tert-butyl)-1H-pyrazol-5-yl)amino)-6-chloroquinazolin-7-yl)piperazin-1-yl)-4-methyltetrahydrofuran-3-ol], the IC50 is 11.4 nM.

Take `Cn1ncc(Nc2ncc3cc(Cl)c(N4CCN(C5(C)COCC5O)CC4)cc3n2)c1C(F)F` (single isomer, unassigned) [Ex-6.49, (3S,4S) or (3R,4R) 4-(4-(6-chloro-2-((5-(difluoromethyl)-1-methyl-1H-pyrazol-4-yl)amino)quinazolin-7-yl)piperazin-1-yl)-4-methyltetrahydrofuran-3-ol]: the IC50 was 2.07 nM.

Turning to `CC(C)n1ncc(Nc2ncc3cc(Cl)c(N4CCN(C5(C)COCC5O)CC4)cc3n2)c1C(F)F` (single isomer, unassigned) [Ex-6.50, (3S,4S) or (3R,4R) 4-(4-(6-chloro-2-((5-(difluoromethyl)-1-isopropyl-1H-pyrazol-4-yl)amino)quinazolin-7-yl)piperazin-1-yl)-4-methyltetrahydrofuran-3-ol], the IC50 was 0.08 nM.

As for `Cc1c(Nc2cc3cc(N4CCN(C5(C)COCC5O)CC4)c(Cl)cc3cn2)cnn1C1CC1` (single isomer, unassigned) [Ex-6.51, (3S,4S) or (3R,4R) 4-(4-(7-chloro-3-((1-cyclopropyl-5-methyl-1H-pyrazol-4-yl)amino)isoquinolin-6-yl)piperazin-1-yl)-4-methyltetrahydrofuran-3-ol], the IC50 was 1.35 nM.

`CC1(N2CCN(c3cc4cc(Nc5cnn(C6CC6(F)F)c5Cl)ncc4cc3Cl)CC2)COCC1O` (single isomer, unassigned) [Ex-6.52, (3S,4S) or (3R,4R) 4-(4-(7-chloro-3-((5-chloro-1-(2,2-difluorocyclopropyl)-1H-pyrazol-4-yl)amino)isoquinolin-6-yl)piperazin-1-yl)-4-methyltetrahydrofuran-3-ol]: the IC50 was 3.12 nM.

For the molecule `Cc1c(Nc2cc3cc(N4CCN(C5(C)COCC5O)CC4)c(Cl)cc3cn2)cnn1C1CC1(F)F` (single isomer, unassigned) [Ex-6.53, (3S,4S) or (3R,4R) 4-(4-(7-chloro-3-((1-(2,2-difluorocyclopropyl)-5-methyl-1H-pyrazol-4-yl)amino)isoquinolin-6-yl)piperazin-1-yl)-4-methyltetrahydrofuran-3-ol], the IC50 was 0.522 nM.

Take `CC1(N2CCN(c3cc4cc(Nc5cnn(C6CC6)c5Cl)ncc4cc3Cl)CC2)COCC1O` (single isomer, unassigned) [Ex-6.54, (3S,4S) or (3R,4R) 4-(4-(7-chloro-3-((5-chloro-1-cyclopropyl-1H-pyrazol-4-yl)amino)isoquinolin-6-yl)piperazin-1-yl)-4-methyltetrahydrofuran-3-ol]: the IC50 is 1.21 nM.

Consider `Cc1c(Nc2ncc3ccc(N4C(=O)OC[C@@H]4C)cc3n2)cnn1C1C[C@@H](C)O[C@@H](C)C1` (single isomer, unassigned) [Ex-7.4], for which the IC50 was 6.75 nM.

Consider `Cc1c(Nc2ncc3ccc(N4C(=O)OC[C@@H]4C)cc3n2)cnn1C1C[C@@H](C)O[C@@H](C)C1` (single isomer, unassigned) [Ex-7.6], for which the IC50 is 1.57 nM.

Take `Cc1c(Nc2ncc3ccc(N4C(=O)OCC4C4CC4)cc3n2)cnn1C1CCOCC1` (single isomer, unassigned) [Ex-7.13, (R) or (S) 4-cyclopropyl-3-(2-{[5-methyl-1-(oxan-4-yl)-1H-pyrazol-4-yl]amino}quinazolin-7-yl)-1,3-oxazolidin-2-one]: the IC50 was 11.4 nM.

With `Cc1c(Nc2ncc3ccc(N4C(=O)OCC4C4CC4)cc3n2)cnn1C1CCOCC1` (single isomer, unassigned) [Ex-7.14, (R) or (S) 4-cyclopropyl-3-(2-{[5-methyl-1-(oxan-4-yl)-1H-pyrazol-4-yl]amino}quinazolin-7-yl)-1,3-oxazolidin-2-one], the IC50 is 0.749 nM.

Take `CCn1ncc(Nc2ncc3ccc(N4C(=O)OCC4C4CC4)cc3n2)c1C` (single isomer, unassigned) [Ex-7.15, (R) or (S) 4-cyclopropyl-3-{2-[(1-ethyl-5-methyl-1H-pyrazol-4-yl)amino]quinazolin-7-yl}-1,3-oxazolidin-2-one]: the IC50 is 9.26 nM.

Regarding `CCn1ncc(Nc2ncc3ccc(N4C(=O)OCC4C4CC4)cc3n2)c1C` (single isomer, unassigned) [Ex-7.16, (R) or (S) 4-cyclopropyl-3-{2-[(1-ethyl-5-methyl-1H-pyrazol-4-yl)amino]quinazolin-7-yl}-1,3-oxazolidin-2-one], the IC50 was 0.625 nM.

As for `CCn1ncc(Nc2ncc3ccc(N4C(=O)CCC4C)cc3n2)c1C` (single isomer, unassigned) [Ex-7.17, (R) or (S) 1-{2-[(1-ethyl-5-methyl-1H-pyrazol-4-yl)amino]quinazolin-7-yl}-5-methylpyrrolidin-2-one], the IC50 was 54.9 nM.

For the molecule `CCn1ncc(Nc2ncc3ccc(N4C(=O)CCC4C)cc3n2)c1C` (single isomer, unassigned) [Ex-7.18, (R) or (S) 1-{2-[(1-ethyl-5-methyl-1H-pyrazol-4-yl)amino]quinazolin-7-yl}-5-methylpyrrolidin-2-one], the IC50 was 8.73 nM.

With `CCc1cc2cnc(Nc3cnn(C4CC4(F)F)c3Cl)nc2cc1N1CCN(C2(C)COCC2O)CC1` (single isomer, unassigned) [Ex-8.3, (3S,4S) or (3R,4R) 4-(4-(2-((5-chloro-1-(2,2-(R) or (S)difluorocyclopropyl)-1H-pyrazol-4-yl)amino)-6-ethylquinazolin-7-yl)piperazin-1-yl)-4-methyltetrahydrofuran-3-ol], the IC50 is 0.745 nM.
